For six compounds, IC50 results are on record in US20120121591A1 (priority 2009, published 2012).

Holding throughout (format): cell-based
One test deals with hKv1.3 (Homo sapiens, UniProt P22001). As to the kind of experiment: cell-based. The settings on record: Kv1.3 (IWQ) IC50 (nM, Avg).
Test [1] has as its system IL-2 secretion from T cells in human whole blood. The settings on record: read-out: WB (IL-2) IC50 (nM, Avg).
Test [2] deals with IFN-g secretion from T cells in human whole blood.
Setting [3] is: read-out: WB (IFNg) IC5- (nM, Avg).
Where [4] appears, read: read-out: WB (IFNg) IC50 (nM, Avg).

Like-named read-outs stand apart in the source and are kept apart here.

Chain of hKv1.3 (P22001 whole entry): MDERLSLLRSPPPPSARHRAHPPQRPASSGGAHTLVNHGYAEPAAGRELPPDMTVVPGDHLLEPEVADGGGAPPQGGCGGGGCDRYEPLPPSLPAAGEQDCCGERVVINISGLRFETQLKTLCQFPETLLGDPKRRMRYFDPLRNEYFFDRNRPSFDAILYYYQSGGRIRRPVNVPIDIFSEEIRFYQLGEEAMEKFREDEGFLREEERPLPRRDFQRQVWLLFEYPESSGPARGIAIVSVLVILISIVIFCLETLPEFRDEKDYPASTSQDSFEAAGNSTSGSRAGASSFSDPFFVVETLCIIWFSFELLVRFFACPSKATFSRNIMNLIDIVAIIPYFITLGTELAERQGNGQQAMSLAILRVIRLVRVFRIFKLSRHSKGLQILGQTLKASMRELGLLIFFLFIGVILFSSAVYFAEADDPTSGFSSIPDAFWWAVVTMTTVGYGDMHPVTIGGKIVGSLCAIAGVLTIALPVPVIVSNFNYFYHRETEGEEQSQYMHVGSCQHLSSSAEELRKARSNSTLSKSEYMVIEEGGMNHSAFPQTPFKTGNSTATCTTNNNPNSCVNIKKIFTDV

In the case of `CC[C@H](C)[C@@H]1NC(=O)[C@@H](NC(=O)[C@H](CO)NC(=O)[C@@H](N)CCCNC(=N)N)CSSC[C@@H](C(=O)O)NC(=O)[C@H]([C@@H](C)O)NC(=O)CNC(=O)[C@@H]2CSSC[C@@H]3NC(=O)[C@H](CCC(N)=O)NC(=O)[C@H](Cc4ccccc4)NC(=O)[C@H](C)NC(=O)[C@H]([C@@H](C)O)NC(=O)[C@H](CSSC[C@H](NC(=O)[C@H](Cc4ccccc4)NC(=O)[C@H](CO)NC(=O)[C@H](CC(C)C)NC(=O)[C@H](CCCNC(=N)N)NC(=O)[C@H](Cc4ccc(O)cc4)NC(=O)[C@H](CCCCN)NC(=O)[C@H](CCSC)NC(=O)[C@H](CO)NC(=O)[C@H](Cc4c[nH]cn4)NC(=O)[C@H](CCCCN)NC3=O)C(=O)N[C@@H](CCCNC(=N)N)C(=O)N[C@@H](CCCCN)C(=O)N[C@@H]([C@@H](C)O)C(=O)N2)NC(=O)[C@H](CCCNC(=N)N)NC(=O)[C@H](CO)NC(=O)[C@H](CCCCN)NC(=O)[C@@H]2CCCN2C(=O)[C@H]([C@@H](C)CC)NC(=O)[C@H]([C@@H](C)O)NC(=O)[C@H](CCC(=O)O)NC1=O` [[Glu5]ShK], the IC50 at hKv1.3 was 3.3 nM; in test [1], 16.9 nM; in test [2] (setting [3]), 24.6 nM.

Regarding `CC[C@H](C)[C@@H]1NC(=O)[C@@H](NC(=O)[C@H](CO)NC(=O)[C@@H](N)CCCNC(=N)N)CSSC[C@@H](C(=O)O)NC(=O)[C@H]([C@@H](C)O)NC(=O)CNC(=O)[C@@H]2CSSC[C@@H]3NC(=O)[C@H](CCC(N)=O)NC(=O)[C@H](Cc4ccccc4)NC(=O)[C@H](C)NC(=O)[C@H]([C@@H](C)O)NC(=O)[C@H](CSSC[C@H](NC(=O)[C@H](Cc4ccccc4)NC(=O)[C@H](CO)NC(=O)[C@H](CC(C)C)NC(=O)[C@H](CCCNC(=N)N)NC(=O)[C@H](Cc4ccc(O)cc4)NC(=O)[C@H](CCCCN)NC(=O)[C@H](CCSC)NC(=O)[C@H](CO)NC(=O)[C@H](Cc4c[nH]cn4)NC(=O)[C@H](CCCCN)NC3=O)C(=O)N[C@@H](CCCNC(=N)N)C(=O)N[C@@H](CCCCN)C(=O)N[C@@H]([C@@H](C)O)C(=O)N2)NC(=O)[C@H](CCCNC(=N)N)NC(=O)[C@H](CO)NC(=O)[C@H](CCCCN)NC(=O)[C@@H]2CCCN2C(=O)[C@H]([C@@H](C)CC)NC(=O)[C@H](CCC(=O)O)NC(=O)[C@H](CC(=O)O)NC1=O` [[Glu6]ShK], the figures for the IC50 (against hKv1.3; in test [1]; in test [2] (setting [3])) were 0.17 nM, 0.073 nM and 0.109 nM, respectively.

Take `CC[C@H](C)[C@@H]1NC(=O)[C@@H](NC(=O)[C@H](CO)NC(=O)[C@@H](N)CCCNC(=N)N)CSSC[C@@H](C(=O)O)NC(=O)[C@H]([C@@H](C)O)NC(=O)CNC(=O)[C@@H]2CSSC[C@@H]3NC(=O)[C@H](CCC(N)=O)NC(=O)[C@H](Cc4ccccc4)NC(=O)[C@H](C)NC(=O)[C@H]([C@@H](C)O)NC(=O)[C@H](CSSC[C@H](NC(=O)[C@H](Cc4ccccc4)NC(=O)[C@H](CO)NC(=O)[C@H](CC(C)C)NC(=O)[C@H](CCCNC(=N)N)NC(=O)[C@H](Cc4ccc(O)cc4)NC(=O)[C@H](CCCCN)NC(=O)[C@H](CCSC)NC(=O)[C@H](CO)NC(=O)[C@H](Cc4c[nH]cn4)NC(=O)[C@H](CCCCN)NC3=O)C(=O)N[C@@H](CCCNC(=N)N)C(=O)N[C@@H](CCCCN)C(=O)N[C@@H]([C@@H](C)O)C(=O)N2)NC(=O)[C@H](CCCNC(=N)N)NC(=O)[C@H](CO)NC(=O)[C@H](CCCCN)NC(=O)[C@@H]2CCCN2C(=O)[C@H](CCC(=O)O)NC(=O)[C@H]([C@@H](C)O)NC(=O)[C@H](CC(=O)O)NC1=O` [[Glu7]ShK]: the IC50 against hKv1.3 was 1.25 nM; in test [1] it was 5 nM; in test [2] (setting [3]) it was 19.5 nM.

With `CCCC[C@@H]1NC(=O)[C@H](CO)NC(=O)[C@H](Cc2c[nH]cn2)NC(=O)[C@H](CCCCN)NC(=O)[C@@H]2CSSC[C@@H]3NC(=O)[C@H]([C@@H](C)O)NC(=O)[C@H](CCCCN)NC(=O)[C@H](CCCNC(=N)N)NC(=O)[C@H](CSSC[C@H](NC(=O)[C@H](CCCNC(=N)N)NC(=O)[C@H](CO)NC(=O)[C@H](CCC(=O)O)NC(=O)[C@@H]4CCCN4C(=O)[C@H]([C@@H](C)CC)NC(=O)[C@H]([C@@H](C)O)NC(=O)[C@H](CC(=O)O)NC(=O)[C@H]([C@@H](C)CC)NC(=O)[C@@H](NC(=O)[C@H](CO)NC(=O)[C@@H](N)CCCNC(=N)N)CSSC[C@@H](C(N)=O)NC(=O)[C@H]([C@@H](C)O)NC(=O)CNC3=O)C(=O)N[C@@H]([C@@H](C)O)C(=O)N[C@@H](C)C(=O)N[C@@H](Cc3ccccc3)C(=O)N[C@@H](CCCCN)C(=O)N2)NC(=O)[C@H](Cc2ccccc2)NC(=O)[C@H](CO)NC(=O)[C@H](CC(C)C)NC(=O)[C@H](CCCNC(=N)N)NC(=O)[C@H](Cc2ccc(O)cc2)NC(=O)[C@H](CCCCN)NC1=O` [[Glu9, Lys16,Nle21]ShK-amide], the IC50 on hKv1.3 worked out at 0.263 nM; in test [1], 0.257 nM; in test [2] (setting [4]), 0.342 nM.

For `CC[C@H](C)[C@@H]1NC(=O)[C@@H](NC(=O)[C@H](CO)NC(=O)[C@@H](N)CCCNC(=N)N)CSSC[C@@H](C(=O)O)NC(=O)[C@H]([C@@H](C)O)NC(=O)CNC(=O)[C@@H]2CSSC[C@@H]3NC(=O)[C@H](CCC(N)=O)NC(=O)[C@H](Cc4ccccc4)NC(=O)[C@H](C)NC(=O)[C@H]([C@@H](C)O)NC(=O)[C@H](CSSC[C@H](NC(=O)[C@H](Cc4ccccc4)NC(=O)[C@H](CO)NC(=O)[C@H](CC(C)C)NC(=O)[C@H](CCCNC(=N)N)NC(=O)[C@H](Cc4ccc(O)cc4)NC(=O)[C@H](CCCCN)NC(=O)[C@H](CCSC)NC(=O)[C@H](CO)NC(=O)[C@H](Cc4c[nH]cn4)NC(=O)[C@H](CCCCN)NC3=O)C(=O)N[C@@H](CCCNC(=N)N)C(=O)N[C@@H](CCCCN)C(=O)N[C@@H]([C@@H](C)O)C(=O)N2)NC(=O)[C@H](CCCNC(=N)N)NC(=O)[C@H](CO)NC(=O)[C@H](CCC(=O)O)NC(=O)[C@@H]2CCCN2C(=O)[C@H]([C@@H](C)CC)NC(=O)[C@H]([C@@H](C)O)NC(=O)[C@H](CC(=O)O)NC1=O` [[Glu9]ShK], the IC50 on hKv1.3 came out at 0.128 nM; in test [1], 0.036 nM; in test [2] (setting [3]) it was 0.056 nM.

Turning to `CCCC[C@@H]1NC(=O)[C@H](CO)NC(=O)[C@H](Cc2c[nH]cn2)NC(=O)[C@H](CCCCN)NC(=O)[C@@H]2CSSC[C@@H]3NC(=O)[C@H]([C@@H](C)O)NC(=O)[C@H](CCCCN)NC(=O)[C@H](CCCNC(=N)N)NC(=O)[C@H](CSSC[C@H](NC(=O)[C@H](CCCNC(=N)N)NC(=O)[C@H](CCC(=O)O)NC(=O)[C@H](CCCCN)NC(=O)[C@@H]4CCCN4C(=O)[C@H]([C@@H](C)CC)NC(=O)[C@H]([C@@H](C)O)NC(=O)[C@H](CC(=O)O)NC(=O)[C@H]([C@@H](C)CC)NC(=O)[C@@H](NC(=O)[C@H](CO)NC(=O)[C@@H](N)CCCNC(=N)N)CSSC[C@@H](C(N)=O)NC(=O)[C@H]([C@@H](C)O)NC(=O)CNC3=O)C(=O)N[C@@H]([C@@H](C)O)C(=O)N[C@@H](C)C(=O)N[C@@H](Cc3ccccc3)C(=O)N[C@@H](CCCCN)C(=O)N2)NC(=O)[C@H](Cc2ccccc2)NC(=O)[C@H](CO)NC(=O)[C@H](CC(C)C)NC(=O)[C@H](CCCNC(=N)N)NC(=O)[C@H](Cc2ccc(O)cc2)NC(=O)[C@H](CCCCN)NC1=O` [[Glu10,Lys16,Nle21]ShK-amide], the IC50 against hKv1.3 stood at 0.127 nM; in test [1], 0.776 nM; in test [2] (setting [4]), 1.26 nM.
